Measurements: US20240033373A1, “TARGETED, INTRACELLULAR DELIVERY OF THERAPEUTIC PEPTIDES USING SUPRAMOLECULAR NANOMATERIALS” (The University of Chicago, priority 2020, published 2024)
Read-outs that look alike come from different tables or passages of the source.

How the values were obtained:
DLBCL cell lines = assay: Cell death assay (CellTiter-Glo 2.0), several lines stated together; type: cell-based, human
Method: Plotted points are means of duplicates+/−S.E.M., normalized to an untreated control that received the same pre-treatment, and fitted using nonlinear regression.
(§1) Cell Death Assays Treatments were prepared in 96-well plates in 50 μL at 2× concentration. Cells were suspended at 0.2 million cells per mL, and 50 μL (10,000 cells) were added to each well and pipette-mixed. The plates were incubated for 24-72 hours, depending on the experiment, then 100 μL of CellTiter-Glo 2.0 (Promega) was added and pipette-mixed, followed by luminescence reading (SpectraMax iD5, Molecular Devices).

[1] = pipettable melt of PEG-SS—PPS and PEG(500)DME
SU-DHL-5 = assay: Cell death assay (CellTiter-Glo 2.0); type: cell-based, human; conditions: 24 h ATSP-7041 pre-treatment, then BH3 mimetic
Method: as §1
(§2) First, SU-DHL-5 was treated with equivalent doses of SAH-MS1-18 either as a free drug, inside of αCD19- or αOspA-PSOMs, or on the outside of empty αCD19- or αOspA-PSOMs (FIG. 14A). […] Other DLBCL cell lines, including OCILy1, OCI-Ly3, and OCI-Ly8, were treated (FIG. 14B).

OCI-Ly3 = assay: Cell death assay (CellTiter-Glo 2.0); type: cell-based, human; conditions: 24 h ATSP-7041 pre-treatment, then BH3 mimetic
Method: as §1, §2

[2] = 24 h ATSP-7041 pre-treatment vs vehicle, washed, then BH3 mimetic, WTp53 lines

| Structure (SMILES) | change in cell death sensitivity after p53-reactivation (DLBCL cell lines; [2]) | solubility in polymer melt [1] | change in cell death sensitivity after p53-reactivation (DLBCL cell lines) | change in cell death sensitivity after p53-reactivation (SU-DHL-5) | change in cell death sensitivity after p53-reactivation (OCI-Ly3) |
| --- | --- | --- | --- | --- | --- |
| CC1(C)CCC(CN2CCN(c3ccc(C(=O)NS(=O)(=O)c4ccc(NCC5CCOCC5)c([N+](=O)[O-])c4)c(Oc4cnc5[nH]ccc5c4)c3)CC2)=C(c2ccc(Cl)cc2)C1 [ABT-199] | no notable change in sensitivity | – | – | – | – |
| Cc1c(-c2c(-c3ccc(F)o3)sc3ncnc(O[C@H](Cc4ccccc4OCc4ccnn4CC(F)(F)F)C(=O)O)c23)ccc(OCCN2CCN(C)CC2)c1Cl [S63845] | – | highly soluble | much more sensitive | made much more sensitive | made much more sensitive |
| Cc1c(-c2ccc(N3CCc4cccc(C(=O)Nc5nc6ccccc6s5)c4C3)nc2C(=O)O)cnn1CC12CC3CC(CC(C3)C1)C2 [A-1331852] | no notable change in sensitivity | – | – | – | – |
